Data from PMC5722318, “Absence of anti-hypocretin receptor 2 autoantibodies in post pandemrix narcolepsy cases” (PLoS ONE, 2017).
Where two headings read alike, the source gives them in different places.

System: DQ0602
Assay type: binding, human
Details: for % Read #1 / Read #1: replicate 1; for % Average: mean of two reads; for % Read #2 / Read #2: replicate 2; for Average: mean of the two raw reads; for Read #1 / Read #2: raw signal read
[1] = % of Bio-EBV binding, first assay (02/04/2016, 07/15/2016 or 08/11/2016, by peptide)
[2] = % of Bio-EBV binding, repeat assay (07/19/2016, 07/18/2016 or 08/12/2016, by peptide)
[3] = first assay (02/04/2016, 07/15/2016 or 08/11/2016, by peptide)
[4] = repeat assay (07/19/2016, 07/18/2016 or 08/12/2016, by peptide)

Row | Sequence | Average (two assays) | mean of Bio-EBV epitope binding ± SD (40 μM competitor peptide, 25 nM DQ0602, 100 nM HLA-DM, 1 μM Bio-EBV, acetate pH 4.6, 3 days at 37°C, duplicate, Eu-streptavidin TRF, lower percentage = stronger competitor) | % Read #1 (% of Bio-EBV binding (Bio-EBV average = 100), first assay (02/04/2016, 07/15/2016 or 08/11/2016, by peptide)) | % Average [1] | % Average [2] | % Read #1 [2] | % Read #2 [1] | % Read #2 [2] | Average [3] | Average [4] | Read #1 (first assay (02/04/2016, 07/15/2016 or 08/11/2016, by peptide), competition against Bio-EBV epitope) | Read #1 [4] | Read #2 [3] | Read #2 [4] | binding to DQ0602 (in words) (competition with Bio-EBV epitope, 40 μM peptide, […])
1 | HDSNKGVTAACPH [HA143-155 146N, synthetic 13-mer hemagglutinin peptide containing wild-type 146N] | 43.7826% | 43.78% ± 1.34% | 41.1935% | 42.8329% | 44.7324% | 43.7047% | 44.4722% | 45.7602% | 8060.5 | 7464.5 | 7752 | 7293 | 8369 | 7636 | 
2 | YDDEEFLRYLWR [HCRTR2_34-45] |  |  |  |  |  |  |  |  |  |  |  |  |  |  | did not appear to bind to DQ0602
